Experimental data: PMC9395446, “First-in-human phase 1/1b study to evaluate sitravatinib in patients with advanced solid tumors” (Investigational New Drugs, 2022)
Where “and” joins values, the source holds several entries; their conditions need not be identical. Equal entries are not always repeated. Where two headings read alike, the source gives them in different places.

Experiment: Plasma pharmacokinetics after single and multiple oral doses (noncompartmental analysis)
Type: in vivo, human
Settings: for Cmax / Tmax / AUC / AUC(0-t) / AUC(0-inf) / Vd/F / half-life: human, plasma; for AUC(0-t): read-out: AUClast, geometric mean (CV%); for AUC(0-inf): read-out: AUC∞, geometric mean (CV%); for Vd/F: read-out: Vz/F, geometric mean (CV%)
Procedure: In the PK lead-in period, patients received a single oral dose of sitravatinib (10–200 mg) under fasted conditions with at least 200 mL of water, followed by PK sample collection for 3–7 days, depending on emerging PK information. After the PK lead-in period, patients commenced the daily regimen planned for their cohort. Blood samples were collected pre-dose and 0.5 (for 10 mg only), 1, 2, 4, 6, 8, 12, 24, 36, 48, 72 and 168 (for 20–200 mg dose levels) h post-dose from patients following a single oral dose, and at pre-dose, 0.5, 1, 2, 4, 6, 8, 12 and 24 h post-dose following multiple oral doses for the 10–200 mg levels.
PK samples were collected after a single dose during the PK lead-in period and following multiple oral doses during the study. Plasma PK samples were assayed for quantification of sitravatinib. The lower limit of quantification was 0.05 ng/mL. PK parameters were determined using a noncompartmental analysis approach including maximum (peak) concentration (Cmax), time to reach Cmax following drug administration (tmax), area under the plasma concentration–time curves (AUCs), apparent total clearance of the drug from plasma after oral administration, apparent volume of distribution during the terminal phase after administration and terminal elimination half-life (t1/2). PD effects were examined by analyzing VEGF-A ligand and soluble (s)-VEGF-R2 levels in patients’ plasma samples collected before and after sitravatinib administration.

[1] = 200 mg QD, Cycle 1 Day 15, single patient result

COCCNCc1ccc(-c2cc3nccc(Oc4ccc(NC(=O)C5(C(=O)Nc6ccc(F)cc6)CC5)cc4F)c3s2)nc1 [sitravatinib, Sitravatinib]
CL/F at steady state, geometric mean (CV%) (10 mg QD, Cycle 1 Day 8): 42.5 (42.8); 2 L/h
Cav,ss, geometric mean (CV%) (10 mg QD, Cycle 1 Day 8): 9.81 (42.8); 2 ng/mL
CL/F at steady state, geometric mean (CV%) (20 mg QD, Cycle 1 Day 15): 41.2 (6.4); 3 L/h
Cav,ss, geometric mean (CV%) (20 mg QD, Cycle 1 Day 15): 20.2 (6.4); 3 ng/mL
CL/F at steady state, geometric mean (CV%) (40 mg QD, Cycle 1 Day 15): 64.6 (156.5); 5 L/h
Cav,ss, geometric mean (CV%) (40 mg QD, Cycle 1 Day 15): 25.8 (156.5); 5 ng/mL
CL/F at steady state, geometric mean (CV%) (80 mg QD, Cycle 1 Day 15): 65.7 (104.9); 5 L/h
Cav,ss, geometric mean (CV%) (80 mg QD, Cycle 1 Day 15): 50.7 (104.9); 5 ng/mL
CL/F at steady state, geometric mean (CV%) (110 mg QD, Cycle 1 Day 15): 48.9 (44.5); 3 L/h
Cav,ss, geometric mean (CV%) (110 mg QD, Cycle 1 Day 15): 93.7 (44.5); 3 ng/mL
Interpatient variability for Cmax and AUCτ,ss (120 mg QD): ~ 60%
CL/F at steady state, geometric mean (CV%) (120 mg QD, Cycle 1 Day 15): 75.0 (59.1); 3 L/h
Cav,ss, geometric mean (CV%) (120 mg QD, Cycle 1 Day 15): 66.7 (59.1); 3 ng/mL
CL/F at steady state, geometric mean (CV%) (150 mg QD, Cycle 1 Day 15): 68.8 (46.5); 18 L/h
Cav,ss, geometric mean (CV%) (150 mg QD, Cycle 1 Day 15): 90.9 (46.5); 18 ng/mL
CL/F at steady state [1]: 48.4 (NA); 1 L/h
Cav,ss [1]: 172 (NA); 1 ng/mL
Time by which steady-state appeared to be reached (QD dosing): cycle 1 day 8
Cmax (oral, 10 mg, 10 mg QD, Cycle 1 Day 8, read-out: Cmax,ss, geometric mean (CV%)): 11.4 ng/mL
Tmax (oral, 10 mg, 10 mg QD, Cycle 1 Day 8, read-out: tmax,ss, median (min–max)): 2 h
Cmax (oral, 10 mg, single dose 10 mg, read-out: Cmax, geometric mean (CV%)): 3.54 ng/mL
Tmax (oral, 10 mg, single dose 10 mg, read-out: tmax, median (min–max)): 5.03 h
Cmax (oral, 20 mg, 20 mg QD, Cycle 1 Day 15, read-out: Cmax,ss, geometric mean (CV%)): 23.7 ng/mL
Tmax (oral, 20 mg, 20 mg QD, Cycle 1 Day 15, read-out: tmax,ss, median (min–max)): 8.13 h
Cmax (oral, 20 mg, single dose 20 mg, read-out: Cmax, geometric mean (CV%)): 5.71 ng/mL
Tmax (oral, 20 mg, single dose 20 mg, read-out: tmax, median (min–max)): 8.04 h
Cmax (oral, 40 mg, 40 mg QD, Cycle 1 Day 15, read-out: Cmax,ss, geometric mean (CV%)): 32.5 ng/mL
Tmax (oral, 40 mg, 40 mg QD, Cycle 1 Day 15, read-out: tmax,ss, median (min–max)): 4 h
Cmax (oral, 40 mg, single dose 40 mg, read-out: Cmax, geometric mean (CV%)): 11.8 ng/mL
Tmax (oral, 40 mg, single dose 40 mg, read-out: tmax, median (min–max)): 4.05 h
Cmax (oral, 80 mg, 80 mg QD, Cycle 1 Day 15, read-out: Cmax,ss, geometric mean (CV%)): 69.2 ng/mL
Tmax (oral, 80 mg, 80 mg QD, Cycle 1 Day 15, read-out: tmax,ss, median (min–max)): 4.01 h
Cmax (oral, 80 mg, single dose 80 mg, read-out: Cmax, geometric mean (CV%)): 31.7 ng/mL
Tmax (oral, 80 mg, single dose 80 mg, read-out: tmax, median (min–max)): 6 h
Cmax (oral, 110 mg, 110 mg QD, Cycle 1 Day 15, read-out: Cmax,ss, geometric mean (CV%)): 119 ng/mL
Tmax (oral, 110 mg, 110 mg QD, Cycle 1 Day 15, read-out: tmax,ss, median (min–max)): 2 h
Cmax (oral, 110 mg, single dose 110 mg, read-out: Cmax, geometric mean (CV%)): 49.1 ng/mL
Tmax (oral, 110 mg, single dose 110 mg, read-out: tmax, median (min–max)): 3.02 h
Cmax (oral, 120 mg, 120 mg QD, Cycle 1 Day 15, read-out: Cmax,ss, geometric mean (CV%)): 80.4 ng/mL
Tmax (oral, 120 mg, 120 mg QD, Cycle 1 Day 15, read-out: tmax,ss, median (min–max)): 4 h
Cmax (oral, 120 mg, single dose 120 mg, read-out: Cmax, geometric mean (CV%)): 23.8 ng/mL
Tmax (oral, 120 mg, single dose 120 mg, read-out: tmax, median (min–max)): 8.87 h
Cmax (oral, 150 mg, 150 mg QD, Cycle 1 Day 15, read-out: Cmax,ss, geometric mean (CV%)): 114 ng/mL
Tmax (oral, 150 mg, 150 mg QD, Cycle 1 Day 15, read-out: tmax,ss, median (min–max)): 7.83 h
Cmax (oral, 150 mg, single dose 150 mg, read-out: Cmax, geometric mean (CV%)): 69.3 ng/mL
Tmax (oral, 150 mg, single dose 150 mg, read-out: tmax, median (min–max)): 6 h
Cmax (oral, 200 mg, 200 mg QD, Cycle 1 Day 15, single patient result, read-out: Cmax,ss): 221 ng/mL
Tmax (oral, 200 mg, 200 mg QD, Cycle 1 Day 15, single patient result, read-out: tmax,ss, median (min–max)): 10 h
Cmax (oral, 200 mg, single dose 200 mg, read-out: Cmax, geometric mean (CV%)): 85 ng/mL
Tmax (oral, 200 mg, single dose 200 mg, read-out: tmax, median (min–max)): 5.94 h
AUC (oral, 10 mg QD, Cycle 1 Day 8, read-out: AUCτ,ss, geometric mean (CV%)): 235 ng·h/mL
AUC (oral, 20 mg QD, Cycle 1 Day 15, read-out: AUCτ,ss, geometric mean (CV%)): 486 ng·h/mL
AUC (oral, 40 mg QD, Cycle 1 Day 15, read-out: AUCτ,ss, geometric mean (CV%)): 619 ng·h/mL
AUC (oral, 80 mg QD, Cycle 1 Day 15, read-out: AUCτ,ss, geometric mean (CV%)): 1220 ng·h/mL
AUC (oral, 110 mg QD, Cycle 1 Day 15, read-out: AUCτ,ss, geometric mean (CV%)): 2250 ng·h/mL
AUC (oral, 120 mg QD, Cycle 1 Day 15, read-out: AUCτ,ss, geometric mean (CV%)): 1600 ng·h/mL
AUC (oral, 150 mg QD, Cycle 1 Day 15, read-out: AUCτ,ss, geometric mean (CV%)): 2180 ng·h/mL
AUC (oral, 200 mg QD, Cycle 1 Day 15, single patient result, read-out: AUCτ,ss): 4130 ng·h/mL
AUC(0-t) (oral, single dose 10 mg): 149 ng·h/mL
AUC(0-inf) (oral, single dose 10 mg): 165 ng·h/mL
Vd/F (oral, single dose 10 mg): 3720 L
half-life (oral, single dose 10 mg, read-out: t1/2, arithmetic mean (CV%) (converted)): 43.6 h
AUC(0-t) (oral, single dose 20 mg): 300 ng·h/mL
AUC(0-inf) (oral, single dose 20 mg): 501 ng·h/mL
Vd/F (oral, single dose 20 mg): 2500 L
half-life (oral, single dose 20 mg, read-out: t1/2, arithmetic mean (CV%) (converted)): 47 h
AUC(0-t) (oral, single dose 40 mg): 509 ng·h/mL
AUC(0-inf) (oral, single dose 40 mg): 478 ng·h/mL
Vd/F (oral, single dose 40 mg): 5610 L
half-life (oral, single dose 40 mg, read-out: t1/2, arithmetic mean (CV%) (converted)): 46.5 h
AUC(0-t) (oral, single dose 80 mg): 1430 ng·h/mL
AUC(0-inf) (oral, single dose 80 mg): 1540 ng·h/mL
Vd/F (oral, single dose 80 mg): 3360 L
half-life (oral, single dose 80 mg, read-out: t1/2, arithmetic mean (CV%) (converted)): 46.2 h
AUC(0-t) (oral, single dose 110 mg): 2030 ng·h/mL
AUC(0-inf) (oral, single dose 110 mg): 2920 ng·h/mL
Vd/F (oral, single dose 110 mg): 2410 L
half-life (oral, single dose 110 mg, read-out: t1/2, arithmetic mean (CV%) (converted)): 44.7 h
AUC(0-t) (oral, single dose 120 mg): 1210 ng·h/mL
AUC(0-inf) (oral, single dose 120 mg): 1320 ng·h/mL
Vd/F (oral, single dose 120 mg): 6370 L
half-life (oral, single dose 120 mg, read-out: t1/2, arithmetic mean (CV%) (converted)): 49.3 h
AUC(0-t) (oral, single dose 150 mg): 2940 ng·h/mL
AUC(0-inf) (oral, single dose 150 mg): 3560 ng·h/mL
Vd/F (oral, single dose 150 mg): 2510 L
half-life (oral, single dose 150 mg, read-out: t1/2, arithmetic mean (CV%) (converted)): 42.1 h
AUC(0-t) (oral, single dose 200 mg): 3300 ng·h/mL
AUC(0-inf) (oral, single dose 200 mg): 4000 ng·h/mL
Vd/F (oral, single dose 200 mg): 3660 L
half-life (oral, single dose 200 mg, read-out: t1/2, arithmetic mean (CV%) (converted)): 51.5 h
Tmax (po, multiple oral 10–150 mg QD, fasting, read-out: Median tmax,ss, range across dose levels): 2 to 8.13 h
Tmax (po, single oral 10–200 mg, fasting, read-out: Median tmax, range across dose levels): 3.02 to 8.87 h
half-life (single oral 10–200 mg, fasting, read-out: Arithmetic mean terminal elimination t1/2, range across dose levels): 42.1 to 51.5 h
AUCτ,ss accumulation ratio, range (multiple QD doses): 2.13–8.34
Cmax,ss accumulation ratio, range (multiple QD doses): 1.82–6.89
Dose proportionality of exposure (Cmax and AUCs) (single and multiple doses 10–200 mg, power model): approximately dose-proportional
CL/F, geometric mean (CV%) (single dose 10 mg): 60.5 (58.3); 3 L/h
CL/F, geometric mean (CV%) (single dose 20 mg): 39.9 (63.4); 3 L/h
CL/F, geometric mean (CV%) (single dose 40 mg): 83.7 (194.6); 4 L/h
CL/F, geometric mean (CV%) (single dose 80 mg): 52.0 (104.1); 7 L/h
CL/F, geometric mean (CV%) (single dose 110 mg): 37.6 (61.0); 3 L/h
CL/F, geometric mean (CV%) (single dose 120 mg): 91.2 (109.5); 4 L/h
CL/F, geometric mean (CV%) (single dose 150 mg): 42.1 (63.7); 12 L/h
CL/F, geometric mean (CV%) (single dose 200 mg): 50.0 (126.1); 3 L/h
Peak to trough ratio (PTR) in plasma at steady state (steady state): 1.5–2.1 fold and 1.5- to 2.1 fold
